Patent publication US9302999B2, “Substituted triazoles as herbicides” (E. I. DU PONT DE NEMOURS AND COMPANY, priority 2012, dated 2016)

Tests used:
Format in all cases: in vivo
[1] = system: rice (Oryza sativa); assay: Test C flooded paddy test: rice; details: scale 0 to 100 (0 no effect, 100 complete control)
Outline: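 Plants at 2-leaf stage in pots flooded 3 cm above soil; compounds applied directly into the paddy water, depth maintained. Visual rating against controls after 13–15 days in greenhouse, scale 0 (no effect) to 100 (complete control).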

[2] = system: field poppy (Papaver rhoeas); assay: Test D pre-/postemergence: field poppy; details: Postemergence; for Plant response rating, Field Poppy: 16 g ai/ha, scale 0 to 100
Outline: (§1)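 Visual 0–100 rating versus untreated controls (0 no effect, 100 complete control), taken 14 to 21 days after treatment in a controlled growth environment. Preemergence: silt loam soil. Postemergence: peat moss/vermiculite medium, plants 2 to 18 cm, 1- to 4-leaf stage. Solvent mixture with surfactant.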

[3] = system: deadnettle (henbit deadnettle, Lamium amplexicaule); assay: Test D pre-/postemergence: deadnettle
Excerpt: (§2) Seeds of plant species selected from bluegrass (annual bluegrass, Poa annua), blackgrass (Alopecurus myosuroides), canarygrass (Phalaris minor), chickweed (common chickweed, Stellaria media), galium (catchweed bedstraw, Galium aparine), bromegrass, downy (downy bromegrass, Bromus tectorum), field poppy (Papaver rhoeas), field violet (Viola arvensis), foxtail, green (green foxtail, Setaria viridis), deadnettle (henbit deadnettle, Lamium amplexicaule), ryegrass, Italian (Italian ryegrass, Lolium multiflorum), kochia (Kochia scoparia), lambsquarters (Chenopodium album), oilseed rape (Brassica napus), pigweed (Amaranthus retroflexus), Russian thistle (Salsola iberica), chamomile (scentless chamomile, Matricaria inodora), speedwell (bird's-eye speedwell, Veronica persica), barley, spring (spring barley, Hordeum vulgare), wheat, spring (spring wheat, Triticum aestivum), buckwheat, wild (wild buckwheat, Polygonum convolvulus), mustard, wild (wild mustard, Sinapis arvensis), oat, wild (wild oat, Avena fatua), radish, wild (wild radish, Raphanus raphanistrum), windgrass (Apera spica-venti), barley, winter (winter barley, Hordeum vulgare), and wheat, winter (winter wheat, Triticum aestivum) were planted into a silt loam soil and treated preemergence with test chemicals formulated in a non-phytotoxic solvent mixture which included a surfactant. At the same time, these same crop and weed species were planted in pots containing the planting medium comprising spaghnum peat moss, vermiculite, wetting agent and starter nutrients and treated with postemergence applications of the test chemicals formulated in the same manner. Plants ranged in height from 2 to 18 cm (1- to 4-leaf stage).
(§3) Treated plants and controls were maintained in a controlled growth environment for 14 to 21 days after which time all species were compared to controls and visually evaluated. Plant response ratings, summarized in Table D, are based on a scale of 0 to 100 where 0 is no effect and 100 is complete control. A dash (-) response means no test result.

[4] = system: ryegrass, Italian (Italian ryegrass, Lolium multiflorum); assay: Test D pre-/postemergence: ryegrass, Italian
Excerpt: as §2, §3

[5] = system: kochia (Kochia scoparia); assay: Test D pre-/postemergence: kochia
Outline: as §1

[6] = system: buckwheat, wild (wild buckwheat, Polygonum convolvulus); assay: Test D pre-/postemergence: buckwheat, wild
Excerpt: as §2, §3

[7] = 31 g ai/ha, scale 0 to 100 (0 no effect, 100 complete control)
[8] = 62 g ai/ha, scale 0 to 100 (0 no effect, 100 complete control)
[9] = 125 g ai/ha, scale 0 to 100, 0 no effect, 100 complete control
[10] = 250 g ai/ha, scale 0 to 100 (0 no effect, 100 complete control)
[11] = Postemergence, 31 g ai/ha, scale 0 to 100 (0 no effect, 100 complete control)
[12] = Postemergence, 62 g ai/ha, scale 0 to 100 (0 no effect, 100 complete control)
[13] = Postemergence, 125 g ai/ha, scale 0 to 100, 0 no effect, 100 complete control
[14] = Postemergence, 250 g ai/ha, scale 0 to 100 (0 no effect, 100 complete control)
[15] = Postemergence, 16 g ai/ha, scale 0 to 100
[16] = Preemergence, 31 g ai/ha, scale 0 to 100, 0 no effect, 100 complete control
[17] = Preemergence, 62 g ai/ha, scale 0 to 100
[18] = Preemergence, 125 g ai/ha, scale 0 to 100
[19] = Preemergence, 250 g ai/ha, scale 0 to 100

SMILES: COc1nn(-c2ccc(C(F)(F)F)cc2)nc1Cc1ccnc(C(F)(F)F)c1 [Compound 15, 4-[[5-methoxy-2-[4-(trifluoromethyl)phenyl]-2H-1,2,3-triazol-4-yl]methyl]-2-(trifluoromethyl)pyridine]
- plant injury at 62 g/ha ([1]; Oryza sativa, Flood (flooded paddy test), 62 g ai/ha, visual rating after 13 to 15 days, read-out: Plant response rating, Rice): 45%
- plant injury at 250 g/ha ([1]; Oryza sativa, Flood (flooded paddy test), 250 g ai/ha, visual rating after 13 to 15 days, read-out: Plant response rating, Rice): 50%
- Plant response rating: Field Poppy [2, 7]: 100
- Plant response rating: Field Poppy [2, 8]: 100
- Plant response rating: Field Poppy [2, 9]: 100
- Plant response rating: Field Poppy [2, 10]: 100
- Plant response rating, Field Poppy [2]: 100
- Plant response rating: Deadnettle [3, 11]: 75
- Plant response rating: Deadnettle [3, 12]: 98
- Plant response rating: Deadnettle [3, 13]: 100
- Plant response rating: Deadnettle [3, 14]: 100
- Plant response rating, Deadnettle [3, 15]: 50
- Plant response rating, Deadnettle [3, 16]: 10
- Plant response rating, Deadnettle [3, 17]: 40
- Plant response rating, Deadnettle [3, 18]: 95
- Plant response rating, Deadnettle [3, 19]: 100
- Plant response rating: Ryegrass, Italian [4, 11]: 5
- Plant response rating: Ryegrass, Italian [4, 12]: 5
- Plant response rating: Ryegrass, Italian [4, 13]: 10
- Plant response rating: Ryegrass, Italian [4, 14]: 20
- Plant response rating, Ryegrass, Italian [4, 15]: 0
- Plant response rating, Ryegrass, Italian [4, 16]: 0
- Plant response rating, Ryegrass, Italian [4, 17]: 5
- Plant response rating, Ryegrass, Italian [4, 18]: 25
- Plant response rating, Ryegrass, Italian [4, 19]: 70
- Plant response rating: Kochia [5, 11]: 90
- Plant response rating: Kochia [5, 12]: 90
- Plant response rating: Kochia [5, 13]: 100
- Plant response rating: Kochia [5, 14]: 100
- Plant response rating, Kochia [5, 15]: 20
- Plant response rating, Kochia [5, 16]: 0
- Plant response rating, Kochia [5, 17]: 0
- Plant response rating, Kochia [5, 18]: 70
- Plant response rating, Kochia [5, 19]: 100
- Plant response rating: Buckwheat, Wild [6, 11]: 30
- Plant response rating: Buckwheat, Wild [6, 12]: 30
- Plant response rating: Buckwheat, Wild [6, 13]: 70
- Plant response rating: Buckwheat, Wild [6, 14]: 100
- Plant response rating, Buckwheat, Wild [6, 15]: 0
- Plant response rating, Buckwheat, Wild [6, 16]: 0
- Plant response rating, Buckwheat, Wild [6, 17]: 100
- Plant response rating, Buckwheat, Wild [6, 18]: 100
- Plant response rating, Buckwheat, Wild [6, 19]: 100

SMILES: Cc1nn(-c2ccc(C(F)(F)F)cn2)nc1Oc1ccnc(C(F)(F)F)c1 [Compound 23]
- Plant response rating, Rice ([1]; Flood (flooded paddy test), 62 g ai/ha, visual rating after 13 to 15 days): 0
- Plant response rating, Rice ([1]; Flood (flooded paddy test), 125 g ai/ha, visual rating after 13 to 15 days): 0
- Plant response rating, Rice ([1]; Flood (flooded paddy test), 250 g ai/ha, visual rating after 13 to 15 days): 30
- Plant response rating, Rice ([1]; Flood, 31 g ai/ha): 0
- Plant response rating: Field Poppy [2, 7]: 70
- Plant response rating: Field Poppy [2, 8]: 90
- Plant response rating: Field Poppy [2, 9]: 100
- Plant response rating: Field Poppy [2, 10]: 100
- Plant response rating, Field Poppy [2]: 75
- Plant response rating: Deadnettle [3, 11]: 30
- Plant response rating: Deadnettle [3, 12]: 50
- Plant response rating: Deadnettle [3, 13]: 60
- Plant response rating: Deadnettle [3, 14]: 90
- Plant response rating, Deadnettle [3, 15]: 20
- Plant response rating: Ryegrass, Italian [4, 11]: 10
- Plant response rating: Ryegrass, Italian [4, 12]: 10
- Plant response rating: Ryegrass, Italian [4, 13]: 10
- Plant response rating: Ryegrass, Italian [4, 14]: 15
- Plant response rating, Ryegrass, Italian [4, 15]: 5
- Plant response rating: Kochia [5, 11]: 80
- Plant response rating: Kochia [5, 12]: 85
- Plant response rating: Kochia [5, 13]: 90
- Plant response rating: Kochia [5, 14]: 95
- Plant response rating, Kochia [5, 15]: 20
- Plant response rating: Buckwheat, Wild [6, 11]: 25
- Plant response rating: Buckwheat, Wild [6, 12]: 35
- Plant response rating: Buckwheat, Wild [6, 13]: 40
- Plant response rating: Buckwheat, Wild [6, 14]: 75
- Plant response rating, Buckwheat, Wild [6, 15]: 20
